In patent publication US20260285831A1, “LACTAM DERIVATIVES FOR INHIBITING NLRP3 AND USES THEREOF” (Ventus Therapeutics U.S., Inc., priority 2023, published 2026):
Read-outs that look alike come from different tables or passages of the source.

Molecular target: T1, human NLRP3 (Homo sapiens, UniProt Q96P20)
T1 construct: Human whole blood is drawn from healthy volunteers after obtaining written informed consent; from tissue; host or cells: human whole blood from healthy volunteers (heparin lithium tubes)
Assay: Human whole blood (hWB) NLRP3 assay (IL-1β release after LPS priming and ATP activation)
Format: cell-based
Details: human whole blood, read-out: hWB IL-1β IC50
Description: Human Whole Blood (hWB) NLRP3 Assay
Human whole blood is drawn from healthy volunteers after obtaining written informed consent. Heparin lithium coated tubes are used to collect blood from volunteers. Blood samples are distributed on 96 well plates using 90 μl per well.
Priming procedure: Priming is performed by adding 5 μl of LPS (026:B6; Sigma L-2654) at a final concentration of 1 μg/ml for 4.5 hours in a humidified incubator with 37° C., 5% CO2. Thirty minutes prior to NLRP3 activation, 5 μl of a 20× compound solution or vehicle (2% dimethylsulfoxide (DMSO)) is added to each well and plates were incubated on a shaker (450 rpm) in a humidified incubator with 37° C., 5% CO2.
Alternative priming procedure: Thirty minutes prior to LPS priming, 5 μl of a 20× compound solution or vehicle (2% dimethylsulfoxide (DMSO)) is added to each well and plates were incubated on a shaker (450 rpm) in a humidified incubator with 37° C., 5% CO2. Priming is performed by adding 5 μl of LPS (026:B6; Sigma L-2654) at a final concentration of 1 μg/ml for 5 hours in a humidified incubator with 37° C., 5% CO2.
Activation is then performed by adding 3.3 μl of a 31×ATP solution per well. At the end of the 30 minutes stimulation, the plates are centrifuged (800 g, 10 min, room temperature) and the plasma from each well is frozen at −80° C. […] levels in the supernatant were analyzed using a mesoscale discovery assay (MSD K151TUK) according to the manufacturers' instructions.
There is no detectable difference in assay IC50 results using the priming procedure versus the alternative priming procedure.
Data provided in Table C, below. hWB […] Assay: A represents an IC50 value <0.3 μM; B represents an IC50 value ≥0.3 μM and <0.5 μM; C represents an IC50 value ≥0.5 μM and <1.0 μM; D represents an IC50 value ≥1.0 μM and <10 μM; E represents an IC50 value ≥10 μM. Dashed (--) lines indicate no data available.

[1] = LPS 1 μg/ml priming, ATP activation, Table C, class symbols

T1 sequence (Q96P20 whole entry): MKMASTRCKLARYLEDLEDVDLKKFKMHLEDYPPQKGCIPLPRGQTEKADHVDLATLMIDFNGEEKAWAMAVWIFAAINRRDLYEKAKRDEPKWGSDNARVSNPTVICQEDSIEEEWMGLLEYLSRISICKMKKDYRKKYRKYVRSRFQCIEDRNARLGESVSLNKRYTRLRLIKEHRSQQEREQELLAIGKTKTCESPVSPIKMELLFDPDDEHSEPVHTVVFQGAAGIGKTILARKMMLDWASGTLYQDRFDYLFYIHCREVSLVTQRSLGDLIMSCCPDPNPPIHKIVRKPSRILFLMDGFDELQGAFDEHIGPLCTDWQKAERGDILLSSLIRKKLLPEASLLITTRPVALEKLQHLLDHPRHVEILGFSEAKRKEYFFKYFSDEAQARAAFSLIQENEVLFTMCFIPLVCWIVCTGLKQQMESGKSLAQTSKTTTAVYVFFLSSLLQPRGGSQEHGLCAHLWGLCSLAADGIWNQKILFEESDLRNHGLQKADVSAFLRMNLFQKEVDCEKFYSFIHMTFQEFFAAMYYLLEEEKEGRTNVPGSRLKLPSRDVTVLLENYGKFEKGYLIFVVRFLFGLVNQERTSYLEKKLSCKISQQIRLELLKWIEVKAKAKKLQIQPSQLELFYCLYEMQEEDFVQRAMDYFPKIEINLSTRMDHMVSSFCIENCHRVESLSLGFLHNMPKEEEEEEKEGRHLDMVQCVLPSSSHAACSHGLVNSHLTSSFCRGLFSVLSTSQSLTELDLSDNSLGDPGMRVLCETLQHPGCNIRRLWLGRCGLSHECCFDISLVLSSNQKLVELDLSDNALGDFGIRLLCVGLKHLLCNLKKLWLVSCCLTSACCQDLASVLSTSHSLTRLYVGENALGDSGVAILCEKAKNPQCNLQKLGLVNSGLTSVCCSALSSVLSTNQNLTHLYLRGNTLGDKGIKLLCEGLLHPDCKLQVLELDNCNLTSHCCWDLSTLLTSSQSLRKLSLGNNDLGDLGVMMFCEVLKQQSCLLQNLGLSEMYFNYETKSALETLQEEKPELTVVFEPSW

IC50 [1] [nM] | IC50 (numeric values of Tables D and E) [nM] | Structure (SMILES)
300 to 500 | – | C[C@@H](CC(=O)O)CN1CC[C@@H](N2C(=O)C(C)(C)c3c(F)c(C4CC4)cc(F)c32)C1=O (single isomer, unassigned) [Compound 26A*]
1000 to 10000 | – | CC1(C)C(=O)N(c2cc(C3CC3)cn(CCCC(=O)O)c2=O)c2c(F)cc(C3CC3)c(F)c21 [Compound 14, 4-(5-cyclopropyl-3-(5-cyclopropyl-4,7-difluoro-3,3-dimethyl-2-oxoindolin-1-yl)-2-oxopyridin-1(2H)-yl)butanoic acid]
1000 to 10000 | 1900 | CC1(C)C(=O)N(c2cccn(CCCC(=O)O)c2=O)c2c(F)cc(C3CC3)c(F)c21 [Compound 3, 4-(3-(5-cyclopropyl-4,7-difluoro-3,3-dimethyl-2-oxoindolin-1-yl)-2-oxopyridin-1(2H)-yl)butanoic acid]
1000 to 10000 | – | CC1(C)C(=O)N([C@H]2CCN(CCCC(=O)O)C2=O)c2c(F)cc(C3CC3)c(F)c21 [Compound 16B, (S)-4-(3-(5-cyclopropyl-4,7-difluoro-3,3-dimethyl-2-oxoindolin-1-yl)-2-oxopyrrolidin-1-yl)butanoic acid]
